Results from US9957214B2, “Multifunctional radical quenchers” (ARIZONA BOARD OF REGENTS ON BEHALF OF ARIZONA STATE …, priority 2012, dated 2018).

Tests used:
FRDA lymphocytes = experiment: Suppression of lipid peroxidation (C11-BODIPY581/591, FACS) in FRDA lymphocytes treated with diethyl maleate; format: cell-based; details: Lymphocyte, DEM, read-out: Scavenging activity (%), suppression of lipid peroxidation
Excerpt: Several methods for assaying lipid peroxidation in vitro have been developed (Kuypers et al. (1987) Biochim Biophys Acta. 25, 266-274; Pap et al. (1999) FEBS Lett. 453, 278-282; Drummen et al. (2002) Free RadicBiol Med. 33, 473-490). Almost all of these methods are based on inhibition of free radical-induced oxidation reactions. A widely used fluorescence assay for lipid peroxidation uses lipid soluble cis-parinaric acid as a probe. cis-parinaric acid loses its fluorescence (λexc/em: 320/432 nm) upon interaction with peroxyl radicals and retains its fluorescence in the presence of radical quenchers. cis-parinaric acid is, however, air sensitive, photolabile and absorbs light in the UV region of the spectrum (at ˜320 nm). […] In practical terms, the results obtained using cis-parinaric as a probe for lipid peroxidation are confounded due to the overlapping of the compounds emission spectra with the cis-parinaric emission spectrum. C11-BODIPY^581/591 Oxidation to Measure Lipid Peroxidation To overcome the problem of spectral overlap using cis-parinaric acid, a fluorescence assay for lipid peroxidation using a lipophilic probe belonging to the BODIPY class of fluorescent dyes was used C11-BODIPY^581/591 (4,4-difluoro-5(4-phenyl-1,3-butadienyl)-4-bora-3a, 4a-diaza-s-indacene-3-propionic acid) fluorescent shifts from red to green upon oxidation. C11-BODIPY^581/591 (Molecular Probes, Eugene, Oreg., USA) stock solution concentrations were determined by measuring the absorption of C11-BODIPY^581/591 at 582 nm using a molar extinction coefficient of 140,000 mol^−1 cm^−1 (R. P. Haugland, (1999) Handbook of Fluorescent Probes and Research Chemicals, Molecular Probes, Inc., Eugene, Oreg.). The lipid peroxidation inducer 2,2′-Azobis (2-amidino-propane dihydrochloride) (AAPH) and the antioxidant compound α-tocopherol (α-TOH) were obtained from Sigma (St. Louis, Mo., USA). Phospholipid bilayers were prepared from 1-stearoyl-2-oleoyl-phosphatidylcholine (SOPC) and 1,2-dilinoleoyl-phosphatidylcholine (DLPC) and were purchased from Avanti® polar lipids, Inc., (Alabaster, Ala., USA). Preparation of Liposomes Phosphotidylcholine (PC) liposomes were prepared as described before (Guey-Shuang et al. (1982) Lipids. 17, 403-413). Briefly, DLPC (25 mg) were dissolved in chloroform and the solvent was removed by nitrogen evaporation (˜2 hours) to give a thin film of PC in a round bottom flask. The lipid film was hydrated with 50 mL of 10 mM Tris-HCl (pH 7.4), 100 mM KCl, shaken and sonicated for 15 seconds. The liposomes obtained were filtered several times through […] membrane filter. Measurement of C11-BODIPY^581/591 Oxidation C11-BODIPY^581/591 was incorporated into liposomes and oxidized by peroxyl radicals derived from the decomposition of AAPH in the presence and absence of compounds. Liposomes (1 mg/mL), suspended in 10 mM Tris-HCl (pH 7.4), 100 mM KCl, were transferred to a quartz 1 mL cuvette and placed in a Varian Cary Eclipse fluorometer (Varian, Cary, N.C.) equipped with a thermostatted cuvette holder at 40° C. Liposomes were pre-incubated for 10 min with 200 nM C11-BODIPY^581/591 to allow their incorporation into the lipid phase of the liposomes. After the addition of AAPH (10 mM) the decay of the red fluorescence was followed at λ exc=570 nm, λ em=600 nm. Relative fluorescence units were normalized to 100% intensity. Results obtained were verified by repeating experiments N=3 independent experiments. Measurement of C11-BODIPY^581/591 Oxidation in Cell Culture A quantitative FACS analysis of lipid peroxidation of FRDA lymphocytes, which had been treated with diethyl maleate following incubation in the presence and absence of the test compounds, was measured as described (Khdour et al. (2011) Pharmaceut. Res. 28, 2896-2909). Briefly, FRDA lymphocytes (5×10^5 cell/mL) were treated with the test compounds at final concentrations of 5 and 10 μM and incubated at 37° C. for 16 h in a humidified atmosphere containing 5% CO2 in air. […]

[1] = test system: Friedreich's ataxia lymphoblast cell line GM15850; experiment: Cytoprotection (trypan blue exclusion assay) of DEM-treated FRDA lymphocytes; format: cell-based; details: Homo sapiens, GM15850, DEM alone 18 ± 10% viability, read-out: Cytoprotection (cell viability, % of untreated control)
Procedure, shortened: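 GM15850 FRDA lymphoblasts at 5×10^5 cells/mL pre-incubated with test compounds for 17 h at 37 °C, then exposed to 5 mM DEM to deplete GSH. Viability by 0.4% trypan blue exclusion, ≥500 cells counted per group, expressed as % of non-DEM control; means±S.E.M., n=3.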

[2] = test system: NADH oxidase (complexes I, III and IV); experiment: NADH oxidase activity (complexes I, III and IV) in submitochondrial particles; format: biochemical, bovine

Compound	inhibition at 5 µM (FRDA lymphocytes) [%]	inhibition at 10 µM (FRDA lymphocytes) [%]	viability at 1 µM [1] [%]	viability at 5 µM [1] [%]	NADH oxidase activity (Complex I, III, IV) % ([2]; 1 μM)	NADH oxidase activity (Complex I, III, IV) % ([2]; 5 μM)	NADH oxidase activity (Complex I, III, IV) % ([2]; 10 μM) [%]	inhibition at 1 µM (FRDA lymphocytes; 1 μM) [%]	viability at 0.1 µM ([1]; 0.1 μM) [%]	viability at 0.5 µM [1] [%]	viability at 2.5 µM [1] [%]
CCCCCCCCCCCCCC1=C(OC)C(=O)C(C)=C(NCCCC(=O)OCCCC)C1=O [Compound 46, Butyl 4-(4-methoxy-2-methyl-3,6-dioxo-5-tridecylcyclohexa-1,4-dienylamino)butanoate]	60 ± 1	70 ± 3	63 ± 4	95 ± 3	86 ± 2^ %	84 ± 4^ %	68 ± 1	–	–	–	–
CCCCCCCCCCCCCC1=C(NCCCC(=O)OCCCCCC)C(=O)C(C)=C(NCCCC(=O)OCCCCCC)C1=O [Compound 50, 2,5-bis(hexyl 4-aminobutanoate)-3-methyl-6-tridecylcyclohexa-2,5-diene-1,4-dione]	18 ± 1	23 ± 4	11 ± 2	91 ± 3	85 ± 1^ %	78 ± 6^ %	70 ± 3	–	–	–	–
CCCCCCCCCCCCCC1=C(OC)C(=O)C(C)=C(NCCCC(=O)OCCCCCC)C1=O [Compound 49, Hexyl 4-(4-methoxy-2-methyl-3,6-dioxo-5-tridecylcyclohexa-1,4-dienylamino)butanoate]	8 ± 3	13 ± 3	16 ± 4	87 ± 4	74 ± 2^ %	83 ± 2^ %	74 ± 2	–	–	–	–
CCCCCCCCCCCCCC1=C(OC)C(=O)C=C(NCCCC(=O)OCCCCCC)C1=O [Compound 18, Hexyl 4-(4-methoxy-3,6-dioxo-5-tridecylcyclohexa-1,4-dienylamino)butanoate]	81 ± 1.6	98	–	90 ± 2	54 ± 5.0%	27 ± 3.0%	–	–	–	–	–
COC1=C2CCCCCCCCCCCCCCCNC(=CC1=O)C2=O [Compound 40]	72	83	–	92 ± 3.5	95 ± 3^ %	85 ± 1^ %	70 ± 1	29 ± 4.7	36 ± 4.3	69 ± 2.3	83
CCCCCCCCCCCCCC1=C(OC)C(=O)C=C(NCCCC(=O)OC(C)(C)C)C1=O [Compound 7, tert-butyl 4-(4-methoxy-3,6-dioxo-5-tridecylcyclohexa-1,4-dienylamino)butanoate]	72 ± 1.8	86	80	93 ± 4	84 ± 1.0%	77 ± 4.0%	–	–	–	80	84 ± 5
CCCCCCCCCCCCCC1=C(OC)C(=O)C(C)=C(NCCCC(=O)OC(C)(C)C)C1=O [Compound 43, tert-butyl 4-(4-methoxy-2-methyl-3,6-dioxo-5-tridecylcyclohexa-1,4-dienylamino)butanoate]	61 ± 4	75 ± 2	67 ± 5	91 ± 6	87 ± 2^ %	85 ± 1^ %	80 ± 1	–	–	–	–
